Measurements taken from patent US11406649B2, “Treatment of upper aerodigestive tract disorders and cough” (IVIEW THERAPEUTICS, INC., priority 2018, dated 2022).
Values after ≈ are worked out from the molar mass of the structure shown. “Also recorded” adds a separate entry of the source.

Columns and labels:
Oral Cavity and Pharynx = assay: Sensory qualities of compounds in syrup applied to base of tongue of volunteers; assay type: in vivo, human; details: for duration of unpleasant tastes: metallic, organic solvent-like, harsh
Experimental: The DIPA compounds was 5 mg/mL in cherry-flavored syrup in a volume of 0.8 mL per dose. The sensory effect were recorded every 5 min for 1 hr.
Tests were on four volunteers, with 3 to 5 trials per substance. Compounds were prepared in cherry-flavored syrup at 5 mg/mL and administered ˜0.8 mL per dose with a 2 mL plastic vial to the base of the tongue. The subjects asked to rate the sensations for cooling intensity, cold discomfort and adverse taste.
The concentration of the DIPA compounds was 5 mg/mL in cherry-flavored syrup administered in a volume of 0.8 mL per dose. The sensory effect were recorded every 5 min for 1 hr.

[1] = Water solubility of 1-dialkylphosphorylalkanes; assay type: physicochemical; details: water
Source text: The DIPA compounds are colorless liquids with a density less than water. These structures differ from those described by Rowsell and Spring U.S. Pat. No. 4,070,496 because '496 structures have their “head” (phosphine oxide group) covered by larger, more lipophilic groups. […] The applicant synthesized these analogs (which are achiral, by contrast to the structures of '496 which are >95% chiral). […] This increased water-solublility is striking (Table 3). […] The DIPA analogs are now mobile in the extracellular fluids and permeate between cells to access nerve endings in the stratum basale.

[2] = system: respiratory syncytial virus (RSV) induced cough; assay: Mouse cough model of respiratory syncytial virus infection; assay type: in vivo; details: 1 mg perioral per mouse, 1 hr before count
cloned hTRPM8 channel = cloned hTRPM8 channel (Homo sapiens (Human), UniProt Q7Z2W7); assay: TRPM8 agonist activity, Fluo-8 calcium FLIPR assay (ChanTest); assay type: cell-based; details: for Relative Potency to L-menthol: L-menthol = 1.0; for TRPM8 Relative Potency: Table 8, DIPA-1-7 = 1; for TRPM8 bioactivity: structural modifications
Experimental: In the first set of data, the potency and in vitro effects of test compounds were evaluated on cloned hTRPM8 channel (encoded by the human TRPM8 gene, expressed in CHO cells) using a Fluo-8 calcium kit and a Fluorescence Imaging Plate Reader (FLIPR^TETRA™) instrument. […] Test solutions were in a HEPES-buffered saline, in 384-well plates, and placed into the FLIPR instrument (Molecular Devices Corporation, Union City, Calif., USA). […] The test cells were Chinese Hamster Ovary (CHO) cells stably transfected with human TRPM8 cDNAs. Concentration-response data were analyzed via FLIPR Control software) and fitted to a Hill equation for the EC50.

[3] = system: acid-induced swallowing movements; assay: Suppression of acid-induced swallowing movements in the anesthetized rat; assay type: in vivo; details: for EC50: anesthetized rat; for Relative Potency: suppression of acid-induced swallowing
Source text: A principal endogenous irritant in the linings of the upper aerodigestive tract is hydrochloric acid. Acid stimulations of the mucosa of the pharynx will elicit reflex swallowing. […] In a rat animal model, solutions of organic acids such as acetic acid and citric acid were effective in eliciting swallowing [Kajii et al., Sour taste stimulation facilitates reflex swallowing from the pharynx and larynx in the rat Physiology & Behavior 77: 321-325, 2002]. These methods for measuring sensory responses to acid can be adapted for screening the activity of DIPA-1-9. An agent that stimulates swallowing or an agent that suppress the acid challenge may then have utility in relieving dysphagia or the discomfort of heartburn, respectively. Preliminary experiments were conducted at the Pavlov Institute of Physiology, St. Petersburg, Russia, using adult male Wistar rats (see Table 11) and Wei (US 0.2015/0111852 A1). Swallowing movements was identified as the electromyogram activity and could also be visualized as laryngeal movement. Work is in progress to get more results for DIPA-1-9.

rat skin = assay: Skin irritation tests on rat skin; assay type: in vivo; design: key to Redness after 20 μL applied topically to skin (scale of 0 to +++): scale of 0 to +++; scale of 0 to +++; scale of 0 to +++; scale of 0 to +++; details: for Redness after 20 μL applied topically to skin (scale of 0 to +++): rat skin; for skin irritancy: undiluted form
oropharynx and esophagus = assay: Sensory events and cold discomfort of compounds on throat, chest and body; details: for icy cold / pain in throat: DIPA-1-9 up to 12 mg per unit; for taste: oral cavity / tongue; for sensory side-effects: menthol 5 mg in an orally dissolving tablet
Source text: The terms “icy cold” is used to describe this adverse event in the throat.
Most likely, the compound rapidly distributed and activated cold sensations in the eosophageal lining.

anesthetized rat = assay: In vivo transdermal activity: shaking after topical application to abdominal skin of anesthetized rat; details: pure compound 20 μL on abdominal skin, counted 40 min
Experimental: Shaking frequency was counted for 40 min after topical application.
The importance of water solubility for permeation was further illustrated in studies on the abdominal skin of anesthetized rat. […] The pharmacokinetic determinants of bioactivity are precise. Thus, for the avoidance of cold discomfort, DIPA-1-9 has to reach the receptors in the stratum basale but not “over-stimulate”.

TRPM8 = TRPM8 (Mus musculus (Mouse), UniProt Q8R4D5); assay: TRPM8 Fura-2 calcium assay in transfected CHO cells (Andersson et al.); assay type: cell-based; details: FIG. 4
Experimental: FIG. 4. is a graph of fluorescence response (Δ ratio 340/380) in TRPM8 transfected cells as a function of the logarithm of the concentration of the test compound, expressed in μM, for DIPA-1-7 (black circle), 3,4-7 (open squares), or 3,4-6 (open triangles). The assays were conducted by Andersson et al. of King's College, London, UK, using his methods described in “Modulation of the cold-activated channel TRPM8 by lysophospholipids and polyunsaturated fatty acids. Journal Neuroscience 27 (12): 3347-3355, 2007.
In a second set, tests were made on “mixed” isopropyl-sec-butylphosphorylhexane and heptane analogs described as 3,4-6 and 3,4-7 in Table 2, and results shown in FIG. 4. […] Emission intensity from cells was measured for 90 sec, at every 4 or 5 sec, using excitation wavelengths of 340 and 380 nm and an emission of 520 nm. Fluorescence emission intensity ratios at 340 nm/380 nm excitation (R, in individual cells) were recorded with a FlexStation and the ImageMaster suite of software (PTI, South Brunswick, N.J.). Samples were tested in triplicate at each concentration and the averaged values analyzed by non-linear regression using an a sigmoidal function fit of the points to obtain an estimated EC50 (median effective concentration) (GraphPad Prism software, La Jolla, Calif.). […]

[4] = Flux through excised hairless mouse skin in vitro; assay type: in vitro ADME
Experimental: Test chemicals dissolved in a gel were placed in an incubation well for 8 hr and the permeated amount of the chemical measured by a high pressure liquid chromatograph equipped with a refractive detector. These tests were conducted by Prof Choi of Chosun University, Korea. The flux of DIPA-1-7 was ˜5× greater than DIPA-1-9.
To further study the skin permeation of DIPA compounds, tests were conducted on the flux of DIPA-1-7 and DIPA-1-9 through excised hairless mouse skin in vitro. These tests were conducted by Prof Choi, Dean of the School of Pharmacy of Chosun University, Korea, and the results shown in (FIG. 5).

[5] = system: dorsal surface of the tongue; details: average of 6 subjects; cited from earlier work
[6] = 5 mg/mL in cherry-flavored syrup, ~0.8 mL
[7] = 5 mg/mL in cherry-flavored syrup

cloned hTRPM8 channel, sequence (Q7Z2W7 whole entry): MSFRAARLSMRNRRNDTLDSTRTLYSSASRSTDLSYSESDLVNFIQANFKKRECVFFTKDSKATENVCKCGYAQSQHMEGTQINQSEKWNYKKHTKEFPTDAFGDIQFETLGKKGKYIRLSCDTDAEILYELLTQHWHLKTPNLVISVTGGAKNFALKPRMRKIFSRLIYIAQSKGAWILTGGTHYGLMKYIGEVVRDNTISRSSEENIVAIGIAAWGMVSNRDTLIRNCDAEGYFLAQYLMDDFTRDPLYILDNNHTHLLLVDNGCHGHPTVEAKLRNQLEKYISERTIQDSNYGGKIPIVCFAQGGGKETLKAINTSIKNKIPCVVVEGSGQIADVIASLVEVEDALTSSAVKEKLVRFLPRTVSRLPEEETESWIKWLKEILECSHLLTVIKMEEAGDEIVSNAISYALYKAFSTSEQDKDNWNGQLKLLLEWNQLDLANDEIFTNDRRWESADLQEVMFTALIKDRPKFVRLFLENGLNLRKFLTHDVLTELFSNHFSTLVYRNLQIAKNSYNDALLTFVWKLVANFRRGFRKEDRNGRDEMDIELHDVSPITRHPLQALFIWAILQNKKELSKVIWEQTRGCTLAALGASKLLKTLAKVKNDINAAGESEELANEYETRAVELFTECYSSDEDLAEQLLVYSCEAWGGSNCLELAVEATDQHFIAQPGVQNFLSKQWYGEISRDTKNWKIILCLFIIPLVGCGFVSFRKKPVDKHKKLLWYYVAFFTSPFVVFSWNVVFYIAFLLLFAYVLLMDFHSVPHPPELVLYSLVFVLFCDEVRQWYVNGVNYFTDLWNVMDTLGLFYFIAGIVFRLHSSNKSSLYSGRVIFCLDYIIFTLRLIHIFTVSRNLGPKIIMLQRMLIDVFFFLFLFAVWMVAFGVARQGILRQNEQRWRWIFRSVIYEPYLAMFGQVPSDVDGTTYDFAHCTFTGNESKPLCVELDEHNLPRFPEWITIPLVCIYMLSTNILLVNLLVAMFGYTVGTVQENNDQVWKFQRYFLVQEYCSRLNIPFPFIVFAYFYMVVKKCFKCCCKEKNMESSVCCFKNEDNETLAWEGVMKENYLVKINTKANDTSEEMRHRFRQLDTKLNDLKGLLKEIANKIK
TRPM8, sequence (Q8R4D5 whole entry): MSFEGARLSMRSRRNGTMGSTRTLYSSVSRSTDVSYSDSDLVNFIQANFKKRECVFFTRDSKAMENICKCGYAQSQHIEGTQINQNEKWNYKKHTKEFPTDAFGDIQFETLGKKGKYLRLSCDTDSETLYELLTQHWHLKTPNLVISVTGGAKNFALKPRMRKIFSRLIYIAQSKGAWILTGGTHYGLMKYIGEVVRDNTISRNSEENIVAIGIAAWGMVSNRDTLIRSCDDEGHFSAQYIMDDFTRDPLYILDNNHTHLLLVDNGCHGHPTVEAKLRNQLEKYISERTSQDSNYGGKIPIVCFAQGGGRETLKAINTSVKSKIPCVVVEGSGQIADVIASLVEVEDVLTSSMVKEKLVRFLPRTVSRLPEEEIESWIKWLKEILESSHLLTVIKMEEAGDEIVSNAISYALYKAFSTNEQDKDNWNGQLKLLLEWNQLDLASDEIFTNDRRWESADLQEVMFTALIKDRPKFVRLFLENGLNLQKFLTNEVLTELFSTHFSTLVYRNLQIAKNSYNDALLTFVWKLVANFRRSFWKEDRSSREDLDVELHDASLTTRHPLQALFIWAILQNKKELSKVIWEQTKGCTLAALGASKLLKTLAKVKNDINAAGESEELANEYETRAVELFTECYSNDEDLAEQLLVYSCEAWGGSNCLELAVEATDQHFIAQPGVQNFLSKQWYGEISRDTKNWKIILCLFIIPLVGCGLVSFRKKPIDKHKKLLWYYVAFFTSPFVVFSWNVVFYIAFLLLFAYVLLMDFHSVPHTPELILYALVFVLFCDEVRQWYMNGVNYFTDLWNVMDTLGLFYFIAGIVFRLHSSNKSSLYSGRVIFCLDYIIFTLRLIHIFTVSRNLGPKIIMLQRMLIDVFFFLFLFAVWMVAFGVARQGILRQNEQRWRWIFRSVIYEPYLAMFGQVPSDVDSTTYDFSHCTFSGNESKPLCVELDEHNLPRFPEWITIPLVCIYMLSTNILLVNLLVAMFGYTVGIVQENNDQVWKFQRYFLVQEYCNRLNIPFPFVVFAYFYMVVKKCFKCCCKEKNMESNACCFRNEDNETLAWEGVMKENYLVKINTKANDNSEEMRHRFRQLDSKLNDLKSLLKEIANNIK

SMILES: CCCCCC[P@@](=O)(C(C)C)[C@@H](C)CC [3,4-6, 1-(Isopropyl-sec-butyl)-phosphinoyl-hexane]
- Adverse Taste (Oral Cavity and Pharynx; [6]): 0
- solubility [1]: 25 mg/mL (≈ 108 mM)

SMILES: CCCCCCC[P@@](=O)(C(C)C)[C@@H](C)CC [3,4-7, 1-(Isopropyl-sec-butyl)-phosphinoyl-heptane]
- solubility [1]: 20 mg/mL (≈ 81.2 mM)

SMILES: COc1ccc2c3c1O[C@H]1[C@@H](O)C=C[C@H]4[C@@H](C2)N(C)CC[C@@]341 [Codeine, reference compound]
- cough frequency [2]: significantly inhibited cough frequency

SMILES: CCCCP(=O)(C(C)CC)C(C)CC (stereo not shown) [DAPA-2-4, 1-Di(sec-butyl)-phosphinoyl-butane]
- Relative Potency to L-menthol (cloned hTRPM8 channel): 0.3

SMILES: CCCCCP(=O)(C(C)CC)C(C)CC (stereo not shown) [DAPA-2-5, 1-di-sec-butyl-phosphorylpentane]
- solubility [1]: 22 mg/mL (≈ 94.7 mM)
- Relative Potency to L-menthol (cloned hTRPM8 channel): 2.2

SMILES: CCCCCCP(=O)(C(C)CC)C(C)CC (stereo not shown) [DAPA-2-6, 1-Di(sec-butyl)-phosphinoyl-hexane]
- EC50 [3]: 1700 ± 700 µg/mL (≈ 6.9 mM)
- Relative Potency [3]: 0.05
- Redness after 20 μL applied topically to skin (scale of 0 to +++) (rat skin): +
- skin irritancy (rat skin): skin irritants
- icy cold / pain in throat (oropharynx and esophagus): icy cold
- sensory effects (Oral Cavity and Pharynx; [7]): cold, icy cold, and adverse tastes
- Sensation (Oral Cavity and Pharynx; [6]): icy cold
- duration of unpleasant tastes (Oral Cavity and Pharynx): at least 15 min
- solubility [1]: 8 mg/mL (≈ 32.5 mM)
- Relative Potency to L-menthol (cloned hTRPM8 channel): 4.7
- TRPM8 Relative Potency (cloned hTRPM8 channel): 0.87

SMILES: CCCCCCCP(=O)(C(C)CC)C(C)CC (stereo not shown) [DAPA-2-7, 1-Di(sec-butyl)-phosphinoyl-heptane]
- EC50 [3]: 200 ± 20 µg/mL (≈ 0.768 mM)
- Comments: duration of effect ([3]; long-lasting): lasting; > ~30 min
- Relative Potency [3]: 0.45
- Redness after 20 μL applied topically to skin (scale of 0 to +++) (rat skin): ++
- skin irritancy (rat skin): skin irritants
- icy cold / pain in throat (oropharynx and esophagus): icy cold
- systemic sensations of cold (oropharynx and esophagus; higher oral doses (5 mg or more)): sensations of cold on other body surfaces
- sensory effects (Oral Cavity and Pharynx; [7]): cold, icy cold, and adverse tastes
- Sensation (Oral Cavity and Pharynx; [6]): icy cold
- duration of unpleasant tastes (Oral Cavity and Pharynx): at least 15 min
- solubility [1]: < 3 mg/mL
- Relative Potency to L-menthol (cloned hTRPM8 channel): 3.4
- TRPM8 Relative Potency (cloned hTRPM8 channel): 0.64

SMILES: CCCCCCCCP(=O)(C(C)CC)C(C)CC (stereo not shown) [DAPA-2-8, 1-Di(sec-butyl)-phosphinoyl-octane]
- EC50 [3]: 560 ± 170 µg/mL (≈ 2.04 mM)
- Relative Potency [3]: 0.16
- Sensation (Oral Cavity and Pharynx; [6]): cold
- duration of unpleasant tastes (Oral Cavity and Pharynx): at least 15 min
- solubility [1]: < 3 mg/mL
- Relative Potency to L-menthol (cloned hTRPM8 channel): 2.9
- TRPM8 Relative Potency (cloned hTRPM8 channel): 0.71

SMILES: CCCCCP(=O)(CC(C)C)CC(C)C [DAPA-3-1, 1-di(iso-butyl) phosphinoyl-pentane]
- Relative Potency to L-menthol (cloned hTRPM8 channel): 0.2
- TRPM8 bioactivity (cloned hTRPM8 channel): significant loss of bioactivity

SMILES: CCC(C)P(=O)(CCC(C)C)C(C)CC (stereo not shown) [DAPA-3-2, 1-Di(sec-butyl) phosphinoyl-3-methyl-butane]
- Relative Potency to L-menthol (cloned hTRPM8 channel): 0.9
- TRPM8 bioactivity (cloned hTRPM8 channel): significant loss of bioactivity

SMILES: CCCCCP(=O)(C(C)C)C(C)C [DIPA-1-5, 1-Di(isopropyl)-phosphinoyl-pentane]
- shaking after topical application (anesthetized rat): robust shaking
- Relative Potency to L-menthol (cloned hTRPM8 channel): 0.7

SMILES: CCCCCCP(=O)(C(C)C)C(C)C [DIPA-1-6, 1-Di(isopropyl)-phosphinoyl-hexane]
- shaking after topical application (anesthetized rat): robust shaking
- icy cold / pain in throat (oropharynx and esophagus): icy cold
- Relative Potency to L-menthol (cloned hTRPM8 channel): 1.6

SMILES: CCCCCCCP(=O)(C(C)C)C(C)C [DIPA-1-7, 1-Di(isopropyl)-phosphinoyl-heptane]
- shaking after topical application (anesthetized rat): vigorous shaking; also recorded: robust shaking
- EC50 [3]: 820 ± 80 µg/mL (≈ 3.53 mM)
- Relative Potency [3]: 0.11
- icy cold / pain in throat (oropharynx and esophagus): icy cold
- cold in the chest / behind sternum (oropharynx and esophagus; in vivo): spreads behind the sternum, into the chest
- taste (oropharynx and esophagus): this taste is present
- potency for activation of TRPM8 relative to 3,4-6 (TRPM8): ~10 ×
- potency for activation of TRPM8 relative to 3,4-7 (TRPM8): ~5 ×
- sensory effects (Oral Cavity and Pharynx; [7]): cold, icy cold, and adverse tastes; also recorded: icy pain in the back of the throat
- Sensation (Oral Cavity and Pharynx; [6]): painful cold
- duration of unpleasant tastes (Oral Cavity and Pharynx): at least 15 min
- solubility [1]: > 300 mg/mL
- penetration of excised skin [4]: very active in penetrating the excised skin
- flux relative to DIPA-1-9 ([4]; gel, 8 hr): ~5 ×
- decrease in rate of permeation by added standard enhancers ([4]; propylene glycol-oleyl alcohol (50:50) or Lauroglycol 90 added to gel): ~50%
- Relative Potency to L-menthol (cloned hTRPM8 channel): 5.4
- TRPM8 Relative Potency (cloned hTRPM8 channel): 1

SMILES: CCCCCCCCP(=O)(C(C)C)C(C)C [DIPA-1-8, 1-Di(isopropyl)-phosphinoyl-octane]
- taste (oropharynx and esophagus): this taste is present
- sensory effects (Oral Cavity and Pharynx; [7]): cold, icy cold, and adverse tastes
- Sensation (Oral Cavity and Pharynx; [6]): cold
- duration of unpleasant tastes (Oral Cavity and Pharynx): at least 15 min
- solubility [1]: > 300 mg/mL
- Relative Potency to L-menthol (cloned hTRPM8 channel): 5.4

SMILES: CC(C)[C@@H]1CC[C@@H](C)C[C@H]1O [Menthol, reference compound]
- sensory side-effects (oropharynx and esophagus): chest discomfort
- Threshold, μg (cooling on tongue) [5]: 0.25 µg

SMILES: O=C1NC(c2cccc([N+](=O)[O-])c2)=CCN1c1ccccc1O [icilin, reference compound]
- sensory side-effects (oropharynx and esophagus): did not produce cooling in the chest or the desired sensations on the throat
